Where a SMILES comes first, the peptide text is derived from it. The star is where a group is joined. Cbz = O=C(OCc1ccccc1)*; CH2F = FC*
Experiments:
Caspase-6 (Homo sapiens) = target: T1, Caspase-6 (Homo sapiens) (UniProt P55212); assay: (§1) Inhibition of recombinant MCH2 (unknown origin) assessed as ratio of irreversible rate constant K3 to dissociation constant of the reversible binding step Ki pre-incubated for 60 mins with Acetyl-Tyr-Val-Ala-Asp-amino-4-methylcoumarin substrate followed by enzyme addition by fluorescence based assay
T1 sequence (whole entry): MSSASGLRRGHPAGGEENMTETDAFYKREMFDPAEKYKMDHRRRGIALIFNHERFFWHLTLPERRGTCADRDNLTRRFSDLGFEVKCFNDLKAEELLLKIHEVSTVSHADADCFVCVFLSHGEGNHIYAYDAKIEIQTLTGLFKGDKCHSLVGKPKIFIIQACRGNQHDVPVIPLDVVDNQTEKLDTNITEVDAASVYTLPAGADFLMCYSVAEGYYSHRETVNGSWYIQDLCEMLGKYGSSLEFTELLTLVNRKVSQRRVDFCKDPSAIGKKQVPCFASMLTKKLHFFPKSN

Caspase-1 (Mus musculus) = target: T2, Caspase-1 (Mus musculus) (UniProt P29452); assay: Inhibition of mouse recombinant ICE assessed as ratio of irreversible rate constant K3 to dissociation constant of the reversible binding step Ki pre-incubated for 60 mins with Acetyl-Tyr-Val-Ala-Asp-amino-4-methylcoumarin substrate followed by enzyme addition by fluorescence based assay
T2 sequence (whole entry): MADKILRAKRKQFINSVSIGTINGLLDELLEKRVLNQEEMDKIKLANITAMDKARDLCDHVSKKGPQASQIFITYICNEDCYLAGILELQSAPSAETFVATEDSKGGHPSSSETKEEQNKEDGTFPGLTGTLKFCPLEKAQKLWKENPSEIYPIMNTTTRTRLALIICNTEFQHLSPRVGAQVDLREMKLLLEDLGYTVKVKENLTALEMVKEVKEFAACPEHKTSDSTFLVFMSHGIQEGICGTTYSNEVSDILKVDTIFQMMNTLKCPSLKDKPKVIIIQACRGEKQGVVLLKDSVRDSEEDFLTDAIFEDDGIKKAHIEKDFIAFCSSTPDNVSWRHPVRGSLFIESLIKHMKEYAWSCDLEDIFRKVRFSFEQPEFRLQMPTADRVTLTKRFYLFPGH

Caspase-8 (Homo sapiens) = Caspase-8 (Homo sapiens) (UniProt Q14790); assay: Inhibition of recombinant MCH5 (unknown origin) assessed as ratio of irreversible rate constant K3 to dissociation constant of the reversible binding step Ki pre-incubated for 60 mins with Acetyl-Tyr-Val-Ala-Asp-amino-4-methylcoumarin substrate followed by enzyme addition by fluorescence based assay
Caspase-3 (Homo sapiens) = target: T3, Caspase-3 (Homo sapiens) (UniProt P42574); assay: as §1, with “CPP32” for “MCH2”
T3 sequence (whole entry): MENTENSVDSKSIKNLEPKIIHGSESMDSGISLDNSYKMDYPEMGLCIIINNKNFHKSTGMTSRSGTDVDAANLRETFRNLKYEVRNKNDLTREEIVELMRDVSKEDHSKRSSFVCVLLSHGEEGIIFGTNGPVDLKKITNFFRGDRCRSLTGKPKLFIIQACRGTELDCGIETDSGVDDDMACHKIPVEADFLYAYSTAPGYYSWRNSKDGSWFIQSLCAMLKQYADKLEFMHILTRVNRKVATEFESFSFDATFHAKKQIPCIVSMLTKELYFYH

Caspase-8 (Homo sapiens), sequence (Q14790 217-374 limits assumed): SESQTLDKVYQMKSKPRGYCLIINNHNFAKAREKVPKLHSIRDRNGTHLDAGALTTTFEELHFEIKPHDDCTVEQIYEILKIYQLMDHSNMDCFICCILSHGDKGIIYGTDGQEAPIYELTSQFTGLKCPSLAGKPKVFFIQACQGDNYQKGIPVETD
Caspase-8 (Homo sapiens), sequence (Q14790 385-479 limits assumed): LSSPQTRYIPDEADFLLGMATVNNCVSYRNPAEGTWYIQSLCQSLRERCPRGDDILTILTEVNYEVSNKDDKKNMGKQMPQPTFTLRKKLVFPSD

Row | Ratio (Caspase-6 (Homo sapiens)) [M⁻¹ s⁻¹] | Ratio (Caspase-1 (Mus musculus)) [M⁻¹ s⁻¹] | Ratio (Caspase-8 (Homo sapiens)) [M⁻¹ s⁻¹] | Ratio (Caspase-3 (Homo sapiens)) [M⁻¹ s⁻¹] | SMILES
1 | 42800 | 13900 | 23100 | 54300 | C[C@H](NC(=O)C(=O)NCc1ccccc1)C(=O)N[C@@H](CC(=O)O)C(=O)COc1c(F)c(F)cc(F)c1F
2 | 186000 | 191000 | 82700 | 245000 | C[C@H](NC(=O)C(=O)NCc1cccc2ccccc12)C(=O)N[C@@H](CC(=O)O)C(=O)COP(=O)(c1ccccc1)c1ccccc1
3 | 63000 | 825000 | 286000 | 167000 | CCCOc1ccc(OCC(=O)[C@H](CC(=O)O)NC(=O)[C@@H](NC(=O)C(=O)Nc2cccc3ccccc23)C(C)C)cc1
4 | 18600 | 11700 | 18700 | 22700 | C[C@H](NC(=O)C(=O)Nc1ccc(F)cc1)C(=O)N[C@@H](CC(=O)O)C(=O)COC(=O)c1c(Cl)cccc1Cl
5 | 160000 | 2.32e+06 | 456000 | 98600 | CC(C)[C@H](NC(=O)C(=O)NC1CCCc2ccccc21)C(=O)N[C@@H](CC(=O)O)C(=O)COc1c(F)c(F)cc(F)c1F (stereo partly specified)
6 | 199000 | 2.17e+06 | 1.16e+06 | 413000 | CC(C)[C@H](NC(=O)C(=O)Nc1cccc2ccccc12)C(=O)NC(CC(=O)O)C(=O)CF (mixture of isomers)
7 | 11200 | 58500 | 49600 | 5560 | CC(C)[C@H](NC(=O)C(=O)Nc1ccccc1F)C(=O)N[C@@H](CC(=O)O)C(=O)COc1c(F)c(F)cc(F)c1F
8 | 50000 | 657000 | 155000 | 11200 | CCCCCCCc1ccc(NC(=O)C(=O)N[C@H](C(=O)N[C@@H](CC(=O)O)C(=O)COc2c(F)c(F)cc(F)c2F)C(C)C)cc1
9 | 21100 to 143000 | 46000 to 126000 | 18700 to 92600 | 20500 to 165000 | C[C@H](NC(=O)C(=O)NC12CC3CC(CC(C3)C1)C2)C(=O)N[C@@H](CC(=O)O)C(=O)COC(=O)c1c(Cl)cccc1Cl
10 | 64100 | 22000 | 46200 | 118000 | C[C@H](NC(=O)C(=O)Nc1cccc2c1CCCC2)C(=O)N[C@@H](CC(=O)O)C(=O)COc1c(F)c(F)cc(F)c1F
11 | 212000 | 339000 | 170000 | 478000 | C[C@H](NC(=O)C(=O)Nc1ccccc1F)C(=O)N[C@@H](CC(=O)O)C(=O)COc1c(F)c(F)cc(F)c1F
12 | 2950 | 214000 | 83300 | 12200 | CC(C)[C@H](NC(=O)OCc1ccccc1)C(=O)N[C@@H](C)C(=O)N[C@@H](CC(=O)O)C(=O)CF (Cbz-Val-Ala-Asp-CH2F)
13 | 175000 | 2.57e+06 | 1.83e+06 |  | CC(C)[C@H](NC(=O)C(=O)Nc1cnccn1)C(=O)N[C@@H](CC(=O)O)C(=O)COc1c(F)c(F)cc(F)c1F
14 | 137000 | 1.26e+06 | 1.03e+06 | 42300 | CC(C)[C@H](NC(=O)C(=O)Nc1ccccc1I)C(=O)N[C@@H](CC(=O)O)C(=O)COc1c(F)c(F)cc(F)c1F
15 | 61500 | 2.07e+06 | 2.68e+06 | 10800 | COc1ccccc1NC(=O)C(=O)N[C@H](C(=O)N[C@@H](CC(=O)O)C(=O)COc1c(F)c(F)cc(F)c1F)C(C)C
16 | 37400 | 879000 |  |  | CC(C)[C@H](NC(=O)C(=O)Nc1cccc2ccccc12)C(=O)N[C@@H](CC(=O)O)C(=O)COc1c(F)cc(F)cc1F
17 | 234000 | 1.05e+06 |  |  | CC(C)[C@H](NC(=O)C(=O)Nc1cccc2ccccc12)C(=O)N[C@@H](CC(=O)O)C(=O)COC(=O)c1c(Cl)cccc1Cl

Row | SMILES | Ratio (Caspase-6 (Homo sapiens)) [M⁻¹ s⁻¹] | Ratio (Caspase-1 (Mus musculus)) [M⁻¹ s⁻¹] | Ratio (Caspase-8 (Homo sapiens)) [M⁻¹ s⁻¹] | Ratio (Caspase-3 (Homo sapiens)) [M⁻¹ s⁻¹]
18 | C[C@H](NC(=O)C(=O)Nc1cc(C(C)(C)C)ccc1C(C)(C)C)C(=O)N[C@@H](CC(=O)O)C(=O)COP(=O)(c1ccccc1)c1ccccc1 | 308000 | 211000 | 1.34e+06 | 104000
19 | C[C@H](NC(=O)C(=O)Nc1ccccc1Cl)C(=O)N[C@@H](CC(=O)O)C(=O)COP(=O)(c1ccccc1)c1ccccc1 | 247000 to 373000 | 103000 to 1.98e+06 | 179000 to 2.33e+06 | 162000 to 564000

— ChEMBL document CHEMBL3880422, “C-terminal modified oxamyl dipeptides as inhibitors of the ICE/ced-3 family of cysteine proteases” (2007)
